# Assay results taken from patent publication US7511119B2, “PRAME peptide analogues” (MannKind Corporation, priority 2005, dated 2009).
# Square brackets hold non-standard residues; d marks the D form. Ends that are not written are not given here. Nle = CCCC[C@H](N)C(=O)O; Nva = CCC[C@H](N)C(=O)O
# Legend:
# 624.38 melanoma cells [1] = experiment: Ex vivo cytotoxicity against human tumor cells after boost with SSX-2 analogs; format: in vivo; conditions: plasmid prime, peptide boost; FIG. 12
# Experimental: Eight groups of mice (n=4) were immunized with plasmid expressing SSX-241-49 natural epitope by direct inoculation into the inguinal lymph nodes with 25 ug in 25 ul of PBS/each lymph node at day 0, 3, 14 and 17. This was followed by two additional peptide boosts (similar amount) at day 28 and 31, using a negative control peptide (Melan A 26-35 “EAA”), natural peptide or analogs as shown in FIG. 9.
# [2] = test system: T cell lines against natural epitope SSX-241-49; experiment: Cross-reactivity and functional avidity: IFN-gamma production by T cell lines raised against natural SSX-2 41-49; format: cell-based, HHD transgenic mice; conditions: T cells raised to native peptide tested on analogs; footnote * and unit not given;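 note: analogs presented ex vivo by competent APCs to T cells specific for the non-mutated epitope, scored by lowest activating concentration, peak cytokine effect and concentration at that peak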
# HLA-A*0201 [3] = target: T1, HLA-A*0201 (Homo sapiens, UniProt P04439, D140Y/D185E/D98H/E176V/E277Q/G131W/G231S/I119V/I121R/I166T/I218V/L300P/L318F/N151K/N90K/P208A/P217A/Q86G/Q94H/R138H/R169H/T345S); experiment: Peptide binding using T2 cells; conditions: for Relative affinity (1/RA): half maximal binding of wild-type peptide relative to analog;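 for all read-outs here: Read-out is peptide-induced stabilization of HLA-A*0201 on the cell surface, reflecting mainly Kon at limiting peptide levels and both Kon and Koff at saturating levels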
# From the text: Thus, at limiting concentrations of peptide, it is a measurement of Kon mostly and at saturation levels of peptide it is a measurement of both Kon and Koff.
# Thus, at limiting concentrations of peptide, this is a measurement of Kon mostly and at saturation levels of peptide that is a measurement of both Kon and Koff.
# splenocytes = experiment: Ex vivo IFN-gamma production after re-stimulation with wild-type NY-ESO-1157-165 (ELISA); format: in vivo, mice; conditions: 10 μM wild-type peptide, 3 and 6 days; FIG. 17
# From the text: Supernatants were harvested and the concentration of IFN-γ measured by ELISA.
# [4] = test system: target cells coated with wild-type peptide; experiment: In vivo cytotoxicity against wild-type NY-ESO-1 peptide-coated target cells; parameters: species or system HHD mice; conditions: plasmid entrain, peptide amplify; FIGS. 15-16
# Experimental: (§1) These cells were then stained with CFSE^hi and CFSE^med fluorescence (4.0 μM or 1 μM, respectively, for 15 minutes) and intravenously co-injected into immunized mice with an equal number of control splenocytes stained with CFSE^lo fluorescence (0.4 μM). Eighteen hours later the specific elimination of target cells was measured by removing the spleens and PBMC from challenged animals and measuring CFSE fluorescence by flow cytometry. The relative depletion of the populations corresponding to peptide loaded splenocytes was calculated relative to the control (unloaded) population and expressed as % specific lysis.
# [5] = test system: target cells coated with natural peptide; experiment: In vivo cytotoxicity against splenocytes coated with natural SSX-2 41-49 peptide (CFSE); parameters: species or system HHD mice; conditions: spleen and blood; targets coated with 20 μg/ml and 1 μg/ml natural peptide
# Experimental: Eight groups of mice (n=4) were immunized with plasmid expressing SSX-241-49 natural epitope, by direct inoculation into the inguinal lymph nodes with 25 μg in 25 μl of PBS/each lymph node at day 0, 3, 14 and 17. This was followed by two additional peptide boosts (similar amount) at day 28 and 31, using a negative control peptide (Melan A 26-35 “EAA”), natural peptide or analogs as shown in FIG. 9.
# as §1, with “To evaluate the in vivo response against natural peptide, splenocytes were isolated from littermate control HHD mice and incubated with 20 μg/mL or 1 μg/ml of natural peptide for 2 hours. These” for “These”, “CFSE^hi” for “CFSE^hi and CFSE^med”, “[…]” for “1 μM, respectively,”, “spleen” for “the spleens”, “lysis. FIG. 10 (spleen) and 11 (blood) show the in vivo cytotoxicity elicited by the regimens described in FIG. 7.” for “lysis.”
# 624.38 cells = experiment: Ex vivo cytotoxicity against human tumor cells after boost with tyrosinase analogs; format: in vivo; conditions: pSEM prime, peptide boost; FIG. 41
# Experimental: HHD transgenic mice (n=4/group) were immunized (according to the general protocol in FIG. 40) with plasmid (pSEM) expressing the Tyrosinase369-377 epitope by direct inoculation into the inguinal lymph nodes of 25 μg of plasmid in 25 μl of PBS per lymph node at day 0, 3, 14 and 17. […] One week after the boost, splenocytes were stimulated ex vivo with the native Tyrosinase369-377 peptide and assayed against ^51Cr-labeled human tumor cells (624.38 cells) at various E:T ratios. […] Together with the preceding example, this observation illustrates the usefulness of complementing more stringent assays (in vivo cytotoxicity and tetramer staining) with more sensitive assays (ex vivo cytotoxicity after in vitro stimulation) to outline potentially useful analogs.
# [6] = target: A0201 restricted MHC Class 1 molecules (Homo sapiens, UniProt P04439, D140Y/D185E/D98H/E176V/E277Q/G131W/G231S/I119V/I121R/I166T/I218V/N151K/N90K/P208A/P217A/Q86G/Q94H/R138H/R169H); experiment: iTopia off-rate assay (T1/2); format: binding; conditions: compared with the respective native peptide
# Experimental: Avidin-coated microtiter plates containing class I monomer loaded with a so-called placeholder peptide were used to evaluate peptide binding, affinity and off-rate. […] Assay buffers, anti-MHC-FITC mAb and beta2-microglobulin and control peptides were also supplied with the kits.
# The plates were then incubated on the allele-specific monomer plates at 37° C. The plates were measured at multiple time points (0, 0.5, 1, 1.5, 2, 4, 6 and 8 hrs) for relative fluorescence intensity. The time required for 50% of the peptide to dissociate from the MHC monomer is defined as the T1/2 value (hrs).
# The binding and offrate (T1/2) was determined for six native epitopes and their analogs which were designed to enhance the immune response.
# [7] = test system: native PSMA288-297 peptide; experiment: Cross-reactive immunogenicity of PSMA analogs, IFN-gamma ELISPOT; format: in vivo, HHD transgenic mice; conditions: peptide plus pI:C intranodal; FIG. 22
# Experimental: Groups of HHD transgenic mice (n=8) were immunized with peptide (natural epitope PSMA288-297, or analogs bearing substitutions at primary or secondary anchor residues) by direct inoculation into the inguinal lymph nodes, with 25 μg in 25 μl of PBS+12.5 μg of pI:C to each lymph node at day 0, 3, 14 and 17.
# Mice were sacrificed at 10 days after the last boost, and splenocytes prepared and assessed for IFN-γ production by ELISPOT analysis. […] At 48 hours after incubation, the assay was developed and the frequency of cytokine-producing T cells that recognized native PSMA288-297 peptide was automatically counted. The data is represented in FIG. 22 as the number of spot forming colonies/well (mean of triplicates±SD). […] To the extent that the poor immunogenicity of the native epitope reflects tolerance, the improved activity of these analogs represents tolerance breaking.
# LnCap cells = experiment: Ex vivo cytotoxicity against PSMA+ A2+ human tumor cells; format: in vivo; conditions: splenocytes restimulated ex vivo with native PSMA288-297
# Experimental: HHD transgenic mice (n=4) were immunized with PSMA288-297 peptide (25 μg in 25 μl of PBS, plus 12.5 μg of pI:C to each lymph node) at day 0, 3, 14 and 17. One week after the boost, splenocytes were stimulated ex vivo with the native PSMA288-297 peptide and tested against ^51Cr-labeled human tumor cells (PSMA^+ A2^+ LnCap cells, or as negative control, LnCap cells coated with MHC class I-blocking antibody) at various E:T ratios.
# HHD transgenic mice (n=4) were immunized with plasmid expressing the PSMA288-297 epitope by direct inoculation into the inguinal lymph nodes with 25 μg in 25 μl of PBS to each lymph node at day 0, 3, 14 and 17. This was followed by two peptide boosts (same amount) at day 28 and 31, with the analog I297V. One week after the boost, splenocytes were stimulated ex vivo with the native PSMA288-297 peptide and tested overnight against ^51Cr-labeled human tumor cells (Lncap, A2^+ PSMA^+; or 624.38 A2^+ PSMA^− or control 624.28 cells A2^− PSMA^−) at various E:T ratios.
# [8] = test system: PRAME425-433-specific T cells; experiment: Tetramer/CD8 co-staining of PRAME425-433-specific T cells; format: in vivo, HHD transgenic mice; conditions: versus boost with negative control peptide; FIG. 31
# [9] = test system: native peptide loaded splenocytes; experiment: In vivo cytotoxicity against native PRAME peptide-loaded splenocytes (CFSE); parameters: species or system HHD transgenic mice; conditions: pCTLR2 prime, peptide boost; FIGS. 30-31
# 624.38 melanoma cells [10] = experiment: Ex vivo cytotoxicity against PRAME+ A2+ human tumor cells; format: in vivo; conditions: splenocytes restimulated ex vivo with native PRAME peptide
# Experimental: This was followed by two peptide boosts (2.5 μg) at day 28 and 31, with the analog L426Nva L433Nle.
# HLA-A*0201 [11] = target: T1, HLA-A*0201; experiment: iTopia affinity assay (ED50); format: binding; conditions: PRAME425-433 analogs; affinity lower than native
# From the text: Avidin-coated microtiter plates containing class I monomer loaded with a so-called placeholder peptide were used to evaluate peptide binding, affinity and off-rate. The monomer-coated plates were supplied as part of the iTopia Epitope Discovery System Kit (Beckman Coulter, Inc., San Diego, Calif., USA). Assay buffers, anti-MHC-FITC mAb and beta2-microglobulin and control peptides were also supplied with the kits.
# Plates were read on the fluorometer. Sigmoidal dose response curves were generated using Prism software.
# [12] = target: T2, HLA-A*0201 class I monomer of the iTopia Epitope Discovery System; experiment: iTopia affinity and off-rate assays
# T2 construct: also called A0201 restricted MHC Class 1 molecules; MHC monomer
# HLA-A*0201 on T2 cells = target: T3, HLA-A*0201 on T2 cells (human); experiment: T2 cells, wild-type/analog half-maximal binding
# T3 construct: whole, on cells; Class I MHC on the surface of T2 cells, detected with a fluorescent anti-A2 antibody; beta2-microglobulin is not mentioned for this assay; also called MHC class I (A2 allele)
# [13] = target: T2, HLA-A*0201 class I monomer of the …; experiment: iTopia affinity assay
# [14] = target: T2, HLA-A*0201 class I monomer of the …; experiment: iTopia off-rate assay
molecule,measurement,setting,value
"CC[C@H](C)[C@H](NC(=O)[C@H](Cc1ccc(O)cc1)NC(=O)[C@H](Cc1ccccc1)NC(=O)[C@@H](NC(=O)[C@H](CCCCN)NC(=O)[C@H](CCC(=O)O)NC(=O)[C@H](CO)NC(=O)[C@@H](NC(=O)[C@@H](N)Cc1ccccc1)C(C)C)[C@@H](C)CC)C(=O)O [SSX2 41-49 (K41F, A42V, V49I)]",cytotoxicity against human tumor cells expressing natural SSX-2 41-49 epitope,624.38 melanoma cells [1],increased cytotoxicity
same,Cross-reactivity and fct avidity (native to analogs)*,[2],0.3
same,Relative affinity (1/RA),HLA-A*0201 [3],1.6
"L158V C165V: NY-ESO-1 157-165 analog with L158V and C165V substitutions (SVLMWITQV; UniProt P78358 157-165, looked up, variant L158V C165V)",IFN-gamma production upon ex vivo re-stimulation with wild-type peptide,splenocytes,increased amounts of IFN-gamma
same,"in vivo cytotoxicity (% specific lysis), in words",[4],effect in the same range with wild-type peptide
FASEKIFYV [SSX2 41-49 (K41F)],Cross-reactivity and fct avidity (native to analogs)*,[2],0.3
same,Relative affinity (1/RA),HLA-A*0201 [3],1.5
same,"in vivo cytotoxicity (% specific lysis), in words",[5],increased activity
YVDGTMSQNva (YVDGTMSQ[Nva]) [M370V V377Nva],cytotoxicity against 624.38 cells,624.38 cells,robust cytotoxicity
"SNvaLMWITQV (S[Nva]LMWITQV) [Nyeso-1 157-165 (L158Nva, C165V))]",IFN-gamma production upon ex vivo re-stimulation with wild-type peptide,splenocytes,large levels of IFN-gamma more rapidly
same,"in vivo cytotoxicity (% specific lysis), in words",[4],"substantial, constant cytotoxicity"
same,"stability of binding (half-time of dissociation), in words",[6],Significant increase in the stability
"GLPSIPVHPI (T cell peptide epitope analog) [PSMA 288-297, reference compound]","binding affinity / binding profile with HLA-A*0201 on T2 cells, in words",HLA-A*0201 [3]; compared with wild-type peptide,generally superior binding characteristics
same,"priming of immune response against native PSMA288-297 (IFN-γ ELISPOT), in words",[7],poorly immunogenic
same,cytotoxicity against LnCap human tumor cells,LnCap cells,able to lyse human tumor cells
T{Nva}LQHLIG{Nle} (T[Nva]LQHLIG[Nle]) [S425T L426Nva L433Nle],expansion of T cells specific against the native epitope (tetramer staining),[8],significantly higher
same,"in vivo cytotoxicity against native epitope, in words",[9],capable of expanding the immunity against the native epitope
"SLLQHLIGL [PRAME 425-433, reference compound]",cytotoxicity against 624.38 human tumor cells,624.38 melanoma cells [10],able to lyse human tumor cells
"Ala substitution: PRAME425-433 analog with Ala at the PΩ anchor position (SLLQHLIGA; UniProt P78395 425-433, looked up, variant L433A)",ED50 relative to native peptide,HLA-A*0201 [11],more than 10 fold
"YMDGTMSQV [Tyrosinase 369-377, reference compound]",cytotoxicity against 624.38 cells,624.38 cells,robust cytotoxicity
YASEKIFYV-OH [SSX2 41-49 (K41Y)],Cross-reactivity and fct avidity (native to analogs)*,[2],3
same,Relative affinity (1/RA),HLA-A*0201 [3],1.7
same,"in vivo cytotoxicity (% specific lysis), in words",[5],increased activity
"S157F L158V C165V: NY-ESO-1 157-165 analog with S157F, L158V and C165V substitutions (FVLMWITQV; UniProt P78358 157-165, looked up, variant S157F L158V C165V)",IFN-gamma production upon ex vivo re-stimulation with wild-type peptide,splenocytes,increased amounts of IFN-gamma
"F[Nva]LQHLIG[Nle] [PRAME425-433 analog with Phe at P1, Nva at P2 and Nle at PΩ]",binding result,[12],binds
KISEKIFYV [SSX2 41-49 (A42I)],Relative affinity (1/RA),HLA-A*0201 on T2 cells,1.7 1/RA
KMSEKIFYV [SSX2 41-49 (A42M)],Relative affinity (1/RA),HLA-A*0201 on T2 cells,1.7 1/RA
SLLQHLIG[Nva] [PRAME425-433 analog with Nva at PΩ],fold difference of ED50 against the native peptide,[13],≤ 3 fold
same,t1/2,[14],17.2 h
